Like-named read-outs stand apart in the source and are kept apart here.
Key:
[1] = system: mice; experiment: Nicotine self-administration assay (IV nicotine) in WT, Hcrt-R1 KO and virally-rescued mice; type: in vivo
From the text: Nicotine Self-Administration Assay
Development of Animal Subjects.
To generate Hcrt-R1^+/+ and […] mice, breeding pairs of male and female Hcrt-R1^+/− mice that were backcrossed >10 generations on a C57BL/6 background were obtained from Jackson Laboratory (Bar Harbor, Me.). For all experiments, mice weighing 25-35 g were housed in groups of 2-3 per cage, in a temperature-controlled vivarium under a reversed 12-h light/dark cycle (lights off at 8 am). Food and water were provided ad libitum until behavioral training commenced. During training, mice were food-restricted to maintain ˜85-90% of their free-feeding body weight. Behavioral testing occurred during the dark portion of the light/dark cycle between the hours of 9 am-1 pm, during the early portion of the dark phase of the cycle. All procedures were conducted in strict adherence with the National Institutes of Health Guide for the Care and Use of Laboratory Animals and were approved by the Institutional Animal Care and Use Committee of The Scripps Research Institute.
Mice were anesthetized by inhalation of 1-3% isoflurane in oxygen and silastic catheters were inserted into the jugular veins. […] During the TO period, responding on the lever was recorded but without scheduled consequence. […]

[2] = system: mice; experiment: Food self-administration (lever press for food pellets) in WT and Hcrt-R1 KO mice; type: in vivo; settings: systemic administration 30 min prior to the session
[3] = target: T1, OX1 (Homo sapiens, UniProt O43613); experiment: Orexin receptor cell-based functional assay: [Ca2+]i by FLIPR in CHO-OX1 cells, antagonism of EC90 of OXA
T1 construct: expressed in transfected cells; host or cells: CHO (CHO-OX1, kept under G418 or Blasticidin selection)
T1 sequence (O43613 1-425): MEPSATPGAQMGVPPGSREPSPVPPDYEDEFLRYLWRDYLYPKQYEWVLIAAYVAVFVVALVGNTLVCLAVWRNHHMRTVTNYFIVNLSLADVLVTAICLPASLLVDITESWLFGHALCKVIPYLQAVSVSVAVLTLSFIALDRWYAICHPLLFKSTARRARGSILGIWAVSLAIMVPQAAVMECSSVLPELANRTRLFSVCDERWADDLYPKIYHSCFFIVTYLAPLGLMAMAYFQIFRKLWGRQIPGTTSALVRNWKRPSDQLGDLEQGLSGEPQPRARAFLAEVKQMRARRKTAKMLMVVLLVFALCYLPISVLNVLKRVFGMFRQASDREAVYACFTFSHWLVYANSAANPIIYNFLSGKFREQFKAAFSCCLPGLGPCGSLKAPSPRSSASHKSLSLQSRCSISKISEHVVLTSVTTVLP
Description: Orexin Receptor Cell-based Functional Assay.
Measurement of [Ca^2+]i using a FLIPR: CHO—OX1 or CHO—OX2 cells are seeded into black-walled clear-base 384-well plates (Costar) at a density of 20,000 cells per well in F12-K medium supplemented with 10% FBS and selection antibiotic (500 ug/ml G418 or 15 ug/ml Blasticidin) and cultured overnight. The cells are incubated with equal volume of calcium 4 loading buffer (Molecular Devices, Inc.) containing 2.5 mM probenecid at 37° C. for 30 min, followed by putative OX1 or OX2 receptor antagonists (dose-range 0.1 nM-10 μM) for another 30 min.

[4] = target: T2, CYP3A4 (Homo sapiens, UniProt P08684); experiment: Cytochrome P450 inhibition assay: midazolam hydroxylation to 1'-hydroxymidazolam in human liver microsomes, with or without 30 min pre-incubation; type: in vitro ADME; settings: human, human liver microsomes, probe midazolam, 10 μM test compound; for inhibition at 5 min, 10 µM: read-out: CYP3A4 % inh (10 μM, 5 min); for inhibition at 30 min, 10 µM: 30 min (time-dependent inhibition), read-out: CYP3A4 % inh (10 μM, 30 min)
T2 construct: pre-incubated with human liver microsomes and NADPH for 30 minutes; from tissue; host or cells: human liver microsomes
Description: (§1) Cytochrome P450 Inhibition Assay.
(§2) Compounds were tested for the potential to induce drug-drug interactions by inhibition of the cytochrome P450 3A4 isoform. The assay evaluated the metabolism of a specific marker substrate (CYP3A4, midazolam hydroxylation to 1′-hydroxymidazolam) in the presence or absence of 10 μM test compound. […] A specific inhibitor for the isoform was included in each run to validate the system. An appropriate positive control inhibitor was used. Mechanism-based inhibition was investigated where warranted using a classical method. […] The percent inhibition of the pre-incubated and non-pre-incubated samples were compared as a preliminary evaluation of time-dependent inhibition.

[5] = target: T3, cytochrome P450 3A4 isoform (Homo sapiens, UniProt P08684); experiment: as above; type: in vitro ADME; settings: relative to Examples 112 and 114 (Table 4)
T3 construct: pre-incubated with human liver microsomes and NADPH for 30 minutes; from tissue; host or cells: human liver microsomes
Description: as §1, §2

[6] = Table 2A, bioactivity with respect to OX1, CHO-OX1 cells, FLIPR, read-out: OX1

T2 sequence (P08684 whole entry): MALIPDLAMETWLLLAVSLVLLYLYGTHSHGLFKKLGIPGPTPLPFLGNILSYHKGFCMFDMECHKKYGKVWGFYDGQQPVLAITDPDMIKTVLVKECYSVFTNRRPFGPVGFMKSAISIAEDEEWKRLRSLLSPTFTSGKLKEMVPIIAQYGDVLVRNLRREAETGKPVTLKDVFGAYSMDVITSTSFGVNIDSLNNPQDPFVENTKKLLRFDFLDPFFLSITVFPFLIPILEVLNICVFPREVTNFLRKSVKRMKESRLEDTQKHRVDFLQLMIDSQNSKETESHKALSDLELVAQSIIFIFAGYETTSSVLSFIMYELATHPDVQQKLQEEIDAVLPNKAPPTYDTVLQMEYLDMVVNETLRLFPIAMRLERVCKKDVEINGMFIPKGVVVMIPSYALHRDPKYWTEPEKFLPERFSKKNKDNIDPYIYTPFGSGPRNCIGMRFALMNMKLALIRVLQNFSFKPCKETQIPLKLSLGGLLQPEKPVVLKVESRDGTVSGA
T3 sequence (P08684 whole entry, canonical isoform): as the sequence (P08684 whole entry) above

Question: Which results are given for `CC1(C)OC[C@H](NC(=O)Nc2ccc(Br)cc2Br)[C@H](c2ccccc2)O1` [JNJ 10397049]?
Answer: nicotine self-administration (SA) ([1]; KO mice): marginal decrease in nicotine SA; nicotine self-administration (SA) ([1]; doses 0, 5 and 10 mg/kg, WT mice): no effect on nicotine SA; food self-administration (SA) [2]: no effect on SA of food pellets

Question: `Cc1ccc(-n2nccn2)c(C(=O)N2CCC[C@@H](C)[C@H]2CNc2nnc(C(F)(F)F)s2)c1` [Example A102, ((2S,3R)-3-Methyl-2-(((5-(trifluoromethyl)-1,3,4-thiadiazol-2-yl)amino)methyl)piperidin-1-yl)(5-methyl-2-(2H-1,2,3-triazol-2-yl)phenyl)methanone] was tested. Which IC50 [3, 6] did it give?
Answer: 0.061 µM

Question: With `Cc1nc(C(=O)N2CCCC(C)(C)C2CNc2ncc(C(F)(F)F)cn2)c(-c2ccc(F)cc2)s1` (centres unmarked) [SR-12364, reference compound] as the molecule, how does the IC50 ([3]; Table 5, read-out: OX1 IC50) read?
Answer: 0.137 µM

Question: With `CC(=O)NC1CCC(CNC(=O)c2cccc3cccnc23)N(C(=O)c2ccccc2-c2ccccc2)C1` (racemic) [Example 43, rac-N-((5-acetamido-1-(biphenylcarbonyl)piperidin-2-yl)methyl)quinoline-8-carboxamide] as the molecule, how does the IC50 ([3]; Table 2, IC50 bioactivity, CHO-OX1 cells, FLIPR, read-out: OX1) read?
Answer: 2 µM

Question: For `Cc1ccc(-n2nccn2)c(C(=O)N2CCC[C@@H](C)[C@H]2CNc2ncc(C#N)cc2F)n1` [Example A193, 5-Fluoro-6-((((2S,3R)-3-methyl-1-(6-methyl-3-(2H-1,2,3-triazol-2-yl)picolinoyl)piperidin-2-yl)methyl)amino)nicotinonitrile], which IC50 [3, 6] is on record?
Answer: 0.1 µM

Question: How did the inhibition at 5 min, 10 µM [4] turn out when `Cc1ccc(-n2nccn2)c(C(=O)N2CCC[C@@H](C)[C@H]2CNc2ccc(C(F)(F)F)cn2)c1` (racemic) [Example 114, rac-((2S,3R)-3-methyl-2-(((5-(trifluoromethyl)pyridin-2-yl)amino)methyl)piperidin-1-yl)(5-methyl-2-(2H-1,2,3-triazol-2-yl)phenyl)methanone] was run?
Answer: 78%

Question: What about the inhibition at 30 min, 10 µM [4] of the same molecule?
Answer: 93%

Question: How did the inhibition at 30 min, 10 µM [4] turn out when `C[C@@H]1CCCN(C(=O)c2c(F)cccc2-n2nccn2)[C@@H]1CNc1ncc(C(F)(F)F)cn1` [Compound A259, (2-fluoro-6-(2H-1,2,3-triazol-2-yl)phenyl)((2S,3R)-3-methyl-2-(((5-(trifluoromethyl)pyrimidin-2-yl)amino)methyl)piperidin-1-yl)methanone] was run?
Answer: 41%

Question: For `C[C@@H]1CCCN(C(=O)c2cc(F)ccc2-c2ncccn2)[C@@H]1CNc1ncc(C(F)(F)F)cn1` [Compound A227, (5-Fluoro-2-(pyrimidin-2-yl)phenyl)((2S,3R)-3-methyl-2-(((5-(trifluoromethyl)pyrimidin-2-yl)amino)methyl)piperidin-1-yl)methanone], which inhibition at 30 min, 10 µM [4] is on record?
Answer: 58%

Question: Which results are given for `Cc1ccc(-c2ncccn2)c(C(=O)N2CCC[C@@H](C)[C@H]2CNc2ccc(C(F)(F)F)cn2)c1` (racemic) [Example 112, rac-((2S,3R)-3-methyl-2-(((5-(trifluoromethyl)pyridin-2-yl)amino)methyl)piperidin-1-yl)(5-methyl-2-(pyrimidin-2-yl)phenyl)methanone]?
Answer: IC50 ([3]; Table 4, read-out: OX1 IC50): 0.042 µM; inhibition at 5 min, 10 µM [4]: 72%; inhibition at 30 min, 10 µM [4]: 94%

Question: With `Cc1nc(C(=O)N2CCC[C@@H](C)[C@H]2CNc2ccc(C(F)(F)F)cn2)c(-c2ccc(F)cc2)s1` (racemic) [Example 11, rac-(5-(4-fluorophenyl)-2-methylthiazol-4-yl)((2S,3R)-3-methyl-2-(((5-(trifluoromethyl)pyridin-2-yl)amino)methyl)piperidin-1-yl)methanone] as the molecule, how does the “food self-administration (SA)” value [2] read?
Answer: no effect on food SA

Question: How did the inhibition at 30 min, 10 µM [4] turn out when `C[C@@H]1CCCN(C(=O)c2cc(Cl)ccc2-c2ncccn2)[C@@H]1CNc1ncc(C(F)(F)F)cn1` [Example A201, (5-Chloro-2-(pyrimidin-2-yl)phenyl)((2S,3R)-3-methyl-2-(((5-(trifluoromethyl)pyrimidin-2-yl)amino)methyl)piperidin-1-yl)methanone] was run?
Answer: 59%

Question: And the “inhibition of CYP3A4” value [5]?
Answer: reduced inhibition of CYP3A4

Question: For `Cc1nc(C(=O)N2CCCCC2CNc2ncc(C(F)(F)F)cn2)c(-c2ccc(F)cc2)s1` (centres unmarked) [SR-12376, reference compound], which IC50 ([3]; Table 5, read-out: OX1 IC50) is on record?
Answer: 0.013 µM

Question: Which inhibition at 30 min, 10 µM [4] does the source give for `C[C@@H]1CCCN(C(=O)c2cc(F)ccc2-n2nccn2)[C@@H]1CNc1ncc(C(F)(F)F)cn1` [Example A207, (5-Fluoro-2-(2H-1,2,3-triazol-2-yl)phenyl)((2S,3R)-3-methyl-2-(((5-(trifluoromethyl)pyrimidin-2-yl)amino)methyl)piperidin-1-yl)methanone] here?
Answer: 52%

Question: And the “inhibition of CYP3A4” value [5]?
Answer: reduced inhibition of CYP3A4

From US9499517B2, “Substituted prolines / piperidines as orexin receptor antagonists” (Eolas Therapeutics, Inc., priority 2012, dated 2016)
